We go through three compounds from BindingDB's records for doi:10.1021/jm00040a015 (Pfizer, 1994).

SMILES strings stand for the structures.

This test concerns the target cAMP-dependent protein kinase catalytic subunit alpha (Bos taurus, UniProt P00517). Briefly: PKA Inhibition Assay. The text has this:
IC50 is the inhibitor concentration, which inhibits 50% of PKA activity that catalyzes the transfer of the terminal phosphate from [gamma-32P] labeled ATP to a synthetic kemptide peptide substrate.

As for `CCn1c(=O)c2cc(O)c(O)cc2c2cc(O)c(O)cc21` [5-ethyl-2,3,8,9-tetrahydroxy-5,6-dihydrophenanthridin-6-one], under “pH 7.4, 30 °C”, the IC50 (as a rule, the concentration needed to halve the response being measured) is above 2000 µM. On the same count and under the same terms, as for `Oc1cc2nc(O)c3cc(O)c(O)cc3c2cc1O` [2,3,8,9-tetrahydroxy-5,6-dihydrophenanthridin-6-one], the figure is above 800 µM. `O=S(=O)(c1ccccc1)n1c2cc(O)c(O)cc2c2cc(O)c(O)cc21` [9-(benzenesulfonyl)-9H-carbazole-2,3,6,7-tetrol] yielded an IC50 above 600 µM.
